{"source": "patent US20250177419A1", "about": "“PHARMACEUTICAL COMPOSITION COMPRISING NICLOSAMIDE OR PHARMACEUTICALLY ACCEPTABLE SALT THEREOF AND PREPARATION METHOD THEREFOR” (WEBIOTREE CO., LTD, priority 2022, published 2025)", "key": {"[1]": {"system": "Beta and Omicron variants of SARS-CoV-2", "experiment": "Antiviral efficacy test in Vero E6 cells, qRT-PCR viral genome copy", "type": "cell-based"}, "[2]": {"system": "SARS-CoV-2 Omicron (B11529)", "experiment": "Antiviral efficacy test in Vero E6 cells, qRT-PCR viral genome copy, Omicron", "type": "cell-based"}}}
{"molecule": "O=C(Nc1ccc([N+](=O)[O-])cc1Cl)c1cc(Cl)ccc1O", "note": "[niclosamide]", "values": [{"measurement": "effectiveness in inhibiting viral proliferation compared to remdesivir", "setting": "[1]", "result": "over 1.7 times"}, {"measurement": "antiviral efficacy against the Omicron variant compared to the Beta variant", "setting": "[2]", "result": "more than four times higher antiviral efficacy"}]}
